# Measurements: patent US20240270821A1, “GIP/GLP1/GCG TRI-RECEPTOR AGONISTS AND USES THEREOF” (priority 2023, published 2024)
# Where two headings read alike, the source gives them in different places. Starred links: 1 amine or outer side, 2 acyl side, 3 side chain; linkers in the order of their positions; H or OH if unused. Non-standard residues stand in square brackets, D forms with d. Groups on a side chain read outwards from the residue. No end group written: not given here. *: point of attachment. C20 diacid = O=C(O)CCCCCCCCCCCCCCCCCCC(=O)*; C18 diacid = O=C(O)CCCCCCCCCCCCCCCCC(=O)*; γGlu = O=C(O)[C@H](CCC(=O)[*:2])N[*:1]; 4Pal = N[C@@H](Cc1ccncc1)C(=O)O; αMeL = CC(C)C[C@](C)(N)C(=O)O; Orn = NCCC[C@H](N)C(=O)O; Dap = NC[C@H](N)C(=O)O; AEEA = NCCOCCOCC(=O)O; Aib = CC(C)(N)C(=O)O
# T1: hGIPR (Homo sapiens, UniProt P48546)
# T1 sequence (P48546 22-466): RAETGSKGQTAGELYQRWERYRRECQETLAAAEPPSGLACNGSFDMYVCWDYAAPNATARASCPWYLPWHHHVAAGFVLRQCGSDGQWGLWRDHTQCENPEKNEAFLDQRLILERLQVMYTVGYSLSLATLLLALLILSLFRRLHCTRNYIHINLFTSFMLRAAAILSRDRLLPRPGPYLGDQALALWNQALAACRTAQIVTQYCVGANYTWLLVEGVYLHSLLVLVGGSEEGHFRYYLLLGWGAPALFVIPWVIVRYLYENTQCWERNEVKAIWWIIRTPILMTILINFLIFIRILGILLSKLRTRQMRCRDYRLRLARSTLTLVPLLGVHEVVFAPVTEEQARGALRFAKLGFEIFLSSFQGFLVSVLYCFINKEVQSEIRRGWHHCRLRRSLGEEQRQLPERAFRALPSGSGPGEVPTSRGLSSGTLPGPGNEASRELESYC
# T2: human GIP receptor (human) (UniProt P48546)
# T2 sequence (looked up): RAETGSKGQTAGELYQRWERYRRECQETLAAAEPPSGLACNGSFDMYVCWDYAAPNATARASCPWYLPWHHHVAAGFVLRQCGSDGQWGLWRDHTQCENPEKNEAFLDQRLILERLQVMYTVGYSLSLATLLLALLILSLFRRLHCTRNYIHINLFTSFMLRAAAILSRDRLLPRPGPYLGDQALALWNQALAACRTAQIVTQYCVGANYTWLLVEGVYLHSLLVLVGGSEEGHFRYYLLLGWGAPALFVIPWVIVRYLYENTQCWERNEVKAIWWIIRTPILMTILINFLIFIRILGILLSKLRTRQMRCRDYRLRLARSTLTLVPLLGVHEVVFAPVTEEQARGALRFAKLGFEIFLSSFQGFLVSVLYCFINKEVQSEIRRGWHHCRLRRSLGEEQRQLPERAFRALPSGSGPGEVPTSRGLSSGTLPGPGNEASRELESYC
# Experiments:
# [1] = target: T3, hGLP-1R (Homo sapiens, UniProt P43220); assay: Functional cAMP activation in the presence of 0.1% casein (no HSA); assay type: cell-based;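 note: intracellular cAMP rise after 30 min at 37 °C read by HTRF, normalized between buffer only (0%) and maximal control ligand (100%), four-parameter variable-slope fit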
# [2] = target: T1, hGIPR; assay: Functional cAMP activity in the presence of 1% HSA; assay type: cell-based
# [3] = target: T1, hGIPR; assay: Functional cAMP activation in the presence of 0.1% casein (no HSA); assay type: cell-based;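 note: intracellular cAMP rise after 30 min at 37 °C read by HTRF against a standard curve, scaled between buffer alone (0%) and top control ligand concentration (100%), four-parameter fit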
# [4] = target: human GLP1-R (Homo sapiens, UniProt P43220); assay: GLP1-R internalization assay in HEK293 cells; assay type: cell-based; conditions: for EC50: HEK293 cells expressing SNAP-GLP-1R, read-out: GLP1R Internalization EC50; for Internalization % TOP: normalized to maximum concentration of GLP-1 (100%)
# [5] = target: T3, hGLP-1R; assay: Functional cAMP activity in the presence of 1% HSA; assay type: cell-based
# [6] = target: hGcgR (Homo sapiens, UniProt P47871); assay: Functional cAMP activation in the presence of 0.1% casein (no HSA); assay type: cell-based;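 note: intracellular cAMP rise after 30 min at 37 °C, read by HTRF against a cAMP standard curve, scaled from buffer only (0%) to maximal control ligand response (100%)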
# [7] = target: human GcgR (Homo sapiens, UniProt P47871); assay: Functional cAMP activity in the presence of 1% HSA; assay type: cell-based
# [8] = target: human GLP-1R (SNAP-GLP-1R expressed in HEK293 cells) (human) (UniProt P43220); assay: cell-based or functional assay
# [9] = target: T3, hGLP-1R; assay: cell-based or functional assay
# [10] = target: human glucagon receptor (human) (UniProt P47871); assay: cell-based or functional assay
# [11] = target: T2, human GIP receptor (human); assay: cell-based or functional assay
# [12] = in the presence of 0.1% casein (no HSA), geometric mean, read-out: Relative cAMP EC50, hGLP-1R
# [13] = in the presence of 0.1% casein (no HSA), geometric mean, read-out: Relative cAMP EC50, hGIPR
# [14] = read-out: cAMP Rel EC50, hGLP-1R
# [15] = in the presence of 0.1% casein (no HSA), geometric mean, read-out: Relative cAMP EC50, hGcgR
# T3 sequence (P43220 24-463): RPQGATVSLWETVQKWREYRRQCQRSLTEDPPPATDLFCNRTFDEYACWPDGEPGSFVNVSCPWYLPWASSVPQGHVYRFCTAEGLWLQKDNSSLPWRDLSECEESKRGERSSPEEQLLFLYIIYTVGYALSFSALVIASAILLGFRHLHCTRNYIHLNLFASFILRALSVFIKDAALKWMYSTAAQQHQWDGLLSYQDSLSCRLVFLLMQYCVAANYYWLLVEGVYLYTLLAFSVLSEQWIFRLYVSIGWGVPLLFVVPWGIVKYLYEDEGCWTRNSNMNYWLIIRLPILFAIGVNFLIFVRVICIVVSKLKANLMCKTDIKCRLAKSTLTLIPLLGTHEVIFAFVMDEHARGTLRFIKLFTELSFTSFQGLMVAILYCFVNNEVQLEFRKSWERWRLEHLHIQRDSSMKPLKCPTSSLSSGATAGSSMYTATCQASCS
# Sequence of human GLP-1R (SNAP-GLP-1R expressed in HEK293 cells) (human) (P43220 24-463): as above
# Sequence of human GLP1-R (P43220 24-463): as above
# Sequence of hGcgR (P47871 26-477): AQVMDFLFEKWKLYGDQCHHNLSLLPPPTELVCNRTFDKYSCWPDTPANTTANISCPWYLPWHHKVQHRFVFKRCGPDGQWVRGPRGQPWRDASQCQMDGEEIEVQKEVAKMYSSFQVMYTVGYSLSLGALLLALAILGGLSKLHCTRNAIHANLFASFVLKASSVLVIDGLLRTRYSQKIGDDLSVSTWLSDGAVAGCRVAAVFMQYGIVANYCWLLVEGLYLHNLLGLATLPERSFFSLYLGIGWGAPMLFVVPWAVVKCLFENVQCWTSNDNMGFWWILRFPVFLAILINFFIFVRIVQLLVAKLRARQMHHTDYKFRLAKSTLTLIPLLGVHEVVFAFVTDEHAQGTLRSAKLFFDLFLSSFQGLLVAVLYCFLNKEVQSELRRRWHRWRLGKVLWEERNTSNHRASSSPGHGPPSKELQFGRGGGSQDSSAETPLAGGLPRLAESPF
# Sequence of human GcgR (P47871 26-477): as above
# Sequence of human glucagon receptor (human) (P47871 26-477): as above
Molecule,"EC50 [1, 12] [nM]","EC50 ([2]; read-out: cAMP Rel EC50, hGIPR) [nM]","EC50 [3, 13] [nM]",EC50 [4] [nM],Internalization % TOP [4] [%],"EC50 [5, 14] [nM]","EC50 [6, 15] [nM]","EC50 ([7]; read-out: cAMP Rel EC50, hGcgR) [nM]",GLP1R Internalization EC50 [8] [nM],Internalization % TOP [8] [%],further results
H-Y[Aib]QGTFTSDFS[Orn][αMeL]LDKK([AEEA-γGlu-C18 diacid])AQ[Aib]AFIEYLLEGGPSSGAPPPGGS[AEEA]-NH2 [Example 66],3.86,29.9,0.219,42.1,46.3,329,3.71,415,,,
H-Y[Aib]QGTFTSD[4Pal]S[Orn][αMeL]LDKK([AEEA-γGlu-C18 diacid])AQ[Aib]AFIEWLLEGGPSSGEPPPSGE-NH2 [Example 115],7.6,73.9,0.457,255,56.5,1460,10.6,2210,,,
H-Y[Aib]QGTFTSDFS[Orn][αMeL]LDKK([AEEA-γGlu-C18 diacid])AQ[Aib]AFIEWLLEGGTSSGAPPPSGS-NH2 [Example 176],2.92,40.7,0.212,103,48,389,4.1,461,,,
H-Y[Aib]QGTFTSDFSK[αMeL]LDKK([AEEA-γGlu-C20 diacid])AQ[Aib]AFIEYLLE[Aib]GPSSGAPPPSSG-NH2 [Example 44],,,,51.5,65,,,,,,EC50 [1]: 1.66 nM; EC50 [2]: 35.9 nM; EC50 [3]: 0.116 nM; EC50 [5]: 591 nM; EC50 [6]: 2.46 nM; EC50 [7]: 1050 nM
H-Y[Aib]QGTFTSDFSK[αMeL]LDKK([AEEA-γGlu-C18 diacid])AQ[Aib]QFIEYLLEGGPSSGAPPPSEG-NH2 [Example 51],5.8,98.4,0.421,89.2,55.7,1210,5.15,856,,,
H-Y[Aib]QGTFTSDFSK[αMeL]LDKK([AEEA-γGlu-C20 diacid])AQ[Aib]AFIEYLLE[Aib]GPSSGAPPPSGS-NH2 [Example 45],1.52,33.4,0.112,52.6,62.1,493,2.08,879,,,
CC[C@H](C)[C@H](NC(=O)[C@H](Cc1ccccc1)NC(=O)[C@H](C)NC(=O)C(C)(C)NC(=O)[C@H](CCC(N)=O)NC(=O)[C@H](C)NC(=O)[C@H](CCCCNC(=O)COCCOCCNC(=O)CC[C@H](NC(=O)CCCCCCCCCCCCCCCCC(=O)O)C(=O)O)NC(=O)[C@H](CCCCN)NC(=O)[C@H](CC(=O)O)NC(=O)[C@H](CC(C)C)NC(=O)[C@](C)(CC(C)C)NC(=O)[C@H](CCCCN)NC(=O)[C@H](CO)NC(=O)[C@H](Cc1ccccc1)NC(=O)[C@H](CC(=O)O)NC(=O)[C@H](CO)NC(=O)[C@@H](NC(=O)[C@H](Cc1ccccc1)NC(=O)[C@@H](NC(=O)CNC(=O)[C@H](CCC(N)=O)NC(=O)C(C)(C)NC(=O)[C@@H](N)Cc1ccc(O)cc1)[C@@H](C)O)[C@@H](C)O)C(=O)N[C@@H](CCC(=O)O)C(=O)N[C@@H](Cc1ccc(O)cc1)C(=O)N[C@@H](CC(C)C)C(=O)N[C@@H](CC(C)C)C(=O)N[C@@H](C)C(=O)NCC(=O)NCC(=O)N1CCC[C@H]1C(=O)N[C@@H](CO)C(=O)N[C@@H](CO)C(=O)NCC(=O)N[C@@H](CCC(=O)O)C(=O)N1CCC[C@H]1C(=O)N1CCC[C@H]1C(=O)N1CCC[C@H]1C(=O)N[C@@H](CO)C(=O)N[C@@H](CCC(=O)O)C(=O)NCC(N)=O [Example 22],2.94,81,0.246,41.9,64.7,592,5.42,532,,,
YXQGTXTSDXSILLDKKAQXAFIEYLEEGGPSSGAPPPSGTGE (synthetic construct; SITE 2: note = 2-Aminoisobutyric Acid; SITE 6: note = alpha-methyl-2-fluoro-L-phenylalanine; SITE 10: note = 3-(4-Pyridyl)-L-alanine; SITE 17: note = Lysine is chemically modified through conjugation of the epsilon-amino group of the Lysine side chain with (gamma-Glu)2-CO-(CH2)1) [Example 510],,,,,,,,,11.8,113,
YXQGTXTSDXXIXLDXKAQXEFIEXLIEGGPSSGAPPPSGSE (synthetic construct; SITE 2: note = 2-Aminoisobutyric Acid; SITE 6: note = alpha-methyl-2-fluoro-L-phenylalanine; SITE 10: note = 3-(4-Pyridyl)-L-alanine; SITE 11: note = alpha-methyl-L-serine; SITE 13: note = alpha-methyl-leucine; SITE 16: note = L-ornithine; SITE 17: note = Lysine is chemically mo) [Example 712],,,,,,,,,35.3,109,
YXQGTXTSDXXIXLDXKAQXEFIEXLVEGGPSSGAPPPSGS (synthetic construct; SITE 2: note = 2-Aminoisobutyric Acid; SITE 6: note = alpha-methyl-2-fluoro-L-phenylalanine; SITE 10: note = 3-(4-Pyridyl)-L-alanine; SITE 11: note = alpha-methyl-L-serine; SITE 13: note = alpha-methyl-leucine; SITE 16: note = L-ornithine; SITE 17: note = Lysine is chemically mo) [Example 694],,,,,,,,,21.8,97.3,
Y[Aib]QGTFTSDYS[Dap][αMeL]LDKK([AEEA-γGlu-C18 diacid])AQ[Aib]AFIEYLLEGGESSGAPPPSGS-NH2 [Example 360],,,,,,,,,214,66.1,"Relative cAMP EC50 [9]: 5.86 nM; cAMP Rel EC50, nM (1% HSA) [9]: 989 nM; Relative cAMP EC50 [10]: 5.28 nM; cAMP Rel EC50, nM (1% HSA) [10]: 1470 nM; Relative cAMP EC50 [11]: 0.45 nM; cAMP Rel EC50, nM (1% HSA) [11]: 78.3 nM"
Y[Aib]QGTFTSDYSI[αMeL]LDKQAAK([AEEA-AEEA-γGlu-C20 diacid])QFVEWLIA[Aib]GPSSGEPPPAEG-NH2 [Example 334],,,,,,,,,28.3,96.8,Relative cAMP EC50 [9]: 0.707 nM; cAMP Rel EC50 (1% HSA) [9]: 171 nM; Relative cAMP EC50 [10]: 6.77 nM; cAMP Rel EC50 (1% HSA) [10]: 2070 nM; Relative cAMP EC50 [11]: 0.223 nM; cAMP Rel EC50 (1% HSA) [11]: 72.1 nM
YXQGTFTSDYSKXLDKKAQXAFIEYLLEGGESSGAPPPSGS (synthetic construct; SITE 2: note = 2-Aminoisobutyric Acid; SITE 13: note = alpha-methyl-leucine; SITE 17: note = Lysine is chemically modified through conjugation of the epsilon-amino group of the Lysine side chain with (2-[2-(2-Amino-ethoxy)-ethoxy]-acetyl)-(gamma-Glu)-CO-(CH2) 16-CO2H; SITE 20: n) [Example 358],,,,,,,,,21.5,83.1,"Relative cAMP EC50 [9]: 2.31 nM; cAMP Rel EC50, nM (1% HSA) [9]: 492 nM; Relative cAMP EC50 [10]: 2.78 nM; cAMP Rel EC50, nM (1% HSA) [10]: 876 nM; Relative cAMP EC50 [11]: 0.182 nM; cAMP Rel EC50, nM (1% HSA) [11]: 38.8 nM"
YXQGTFTSDYSXXLDKKAQXAFIEYLLEGGESSGAPPPSGS (synthetic construct; SITE 2: note = 2-Aminoisobutyric Acid; SITE 12: note = L-ornithine; SITE 13: note = alpha-methyl-leucine; SITE 17: note = Lysine is chemically modified through conjugation of the epsilon-amino group of the Lysine side chain with (2-[2-(2-Amino-ethoxy)-ethoxy]-acetyl)-(gamma-Glu)) [Example 359],,,,,,,,,49.6,74.4,"Relative cAMP EC50 [9]: 4.61 nM; cAMP Rel EC50, nM (1% HSA) [9]: 826 nM; Relative cAMP EC50 [10]: 2.1 nM; cAMP Rel EC50, nM (1% HSA) [10]: 957 nM; Relative cAMP EC50 [11]: 0.281 nM; cAMP Rel EC50, nM (1% HSA) [11]: 103 nM"
YXQGTFTSDYSRXLDKKAQXAFIEYLLEGGESSGAPPPSGS (synthetic construct; SITE 2: note = 2-Aminoisobutyric Acid; SITE 13: note = alpha-methyl-leucine; SITE 17: note = Lysine is chemically modified through conjugation of the epsilon-amino group of the Lysine side chain with (2-[2-(2-Amino-ethoxy)-ethoxy]-acetyl)-(gamma-Glu)-CO-(CH2) 16-CO2H; SITE 20: n) [Example 361],,,,,,,,,50.4,73,"cAMP Rel EC50, nM (1% HSA) [9]: 376 nM; cAMP Rel EC50, nM (1% HSA) [10]: 987 nM; cAMP Rel EC50, nM (1% HSA) [11]: 46.3 nM"
YXQGTFTSDFSXXLDKKAQXAFIEWLLEGGPSSGAPPPSGE (synthetic construct; SITE 2: note = 2-Aminoisobutyric Acid; SITE 12: note = L-ornithine; SITE 13: note = alpha-methyl-leucine; SITE 17: note = Lysine is chemically modified through conjugation of the epsilon-amino group of the Lysine side chain with (2-[2-(2-Amino-ethoxy)-ethoxy]-acetyl)-(gamma-Glu)) [Example 119],,,,,,,,,73.5,43.4,
